Data published in patent US20210183469A9, “COMPUTATIONAL PLATFORM FOR IN SILICO COMBINATORIAL SEQUENCE SPACE EXPLORATION AND ARTIFICIAL EVOLUTION OF PEPTIDES” (priority 2018, published 2021).
No end group written: not given here.

Tests used:
human erythrocytes = assay: Hemolytic assay; conditions: 1 h at 37° C., 100% of hemolysis was not observed
Description: (§2) Fresh human venous blood was collected from volunteers in Vacutainer collection tubes containing sodium heparin as an anticoagulant (BD Biosciences, Franklin Lakes, N.J.). The blood was centrifuged at 1500 rpm and the serum was removed and the blood cells were replaced and washed 3 times with the same volume of sterile NaCl 0.85% solution. Concentrated red blood cells were diluted tenfold in NaCl 0.85% solution and then exposed at two-fold dilutions of peptides for 1 h at 37° C., at identical concentrations used for antimicrobial assays, in the ratio of 1:1 (v/v), achieving a final volume of 100 uL. The assay was carried out in 96-well polypropylene microtiter plates. The positive control wells contained 1% of Triton X-100, representing 100% cell lysis, and negative control wells contained sterile saline. Hemoglobin release was monitored chromogenically at 546 nm using a microplate reader.

E. coli ATCC 25922 = assay: SYTOX Green uptake assay (cytoplasmic membrane permeabilization); assay type: cell-based, Escherichia coli; conditions: 5 μM, positive control
Description: The guavanin 2-induced permeabilization of the bacterial cytoplasmic plasma membrane of E. coli ATCC 25922 was determined by fluorometric measurement of SYTOX green (SG) influx (Thevissen et al., Appl. Environ. Microbiol. 1999 December; 65(12): 5451-8). SG is a high-affinity nucleic acid dye that is impermeant to live cells. When the cell membrane is damaged, this dye penetrates into the cell and binds to intracellular DNA, leading to an increase in fluorescence. For SG uptake assay, exponentially growing bacteria (6×10^5 CFU·mL^−1) were re-suspended in PBS after centrifugation (1000×g, 10 min, 4° C.) and washing steps. 792 μL of the bacterial suspension was pre-incubated with 8 μL of 100 μM SG during 30 min at 37° C. in the dark. […] Three independent experiments were performed and results correspond to a representative experiment with negative (PBS) and positive (melittin) controls.

E. coli (ATCC 25922) = assay: Membrane polarization assay with DiSC3(5); assay type: cell-based, Escherichia coli; conditions: melittin positive control
Description: When the cytoplasmic membrane is intact, the fluorescent probe DiSC3(5) accumulates into the cytoplasmic membrane and then aggregates, causing self-quenching of the fluorescence. In the presence of a membrane-depolarizing agent, DiSC3(5) is released into the medium, leading to an increase in fluorescence that can be monitored over time. The experiment was performed as previously described (André et al., ACS Chem. Biol. 2015 Jul. 30; 10(10): 2257-66). Briefly, exponentially growing bacteria were centrifuged (1000×g, 10 min, 4° C.), washed with PBS and re-suspended in the same buffer to an A630 of 0.1; then 700 µL of bacteria were pre-incubated with 1 μM DiSC3(5) in the dark during 10 min at 37° C., and then 100 μL of 1 mM KCl were added in order to equilibrate the cytoplasmic and external K+ concentrations. […] Three independent experiments were performed and results correspond to a representative experiment with negative (PBS) and positive (melittin) controls.

[1] = tested on: bioluminescent engineered P. aeruginosa strain H1001; assay: Antimicrobial activity by bioluminescence assay (SPOT-synthesized peptides); assay type: cell-based, Pseudomonas aeruginosa; conditions: SPOT-synthesized unpurified crude peptide (~70% purity)
Description: A peptide array composed of 20 peptides (15 guavanins, 4 Pg-AMP1 fragments and magainin 2) was designed and synthesized by Kinexus Bioinformatics Corporation (Vancouver, BC). Peptides were produced in a standard mass of 80 μg by using cellulose support in SPOT technology, as previously described by Winkler et al. Methods Mol. Biol. 2009; 570: 157-74. The crude synthetic peptides were obtained from cellulose membrane discs that had already been treated with ammonia gas to release the peptides from the membrane. Peptides were then dissolved overnight in distilled water and subsequently evaluated for their biological activities, as described below.
The antimicrobial activity of the synthesized peptides was evaluated against an engineered luminescent Pseudomonas aeruginosa H1001 strain in 96-well microplates, as described previously with a few modifications (Hilpert & Hancock, Nat. Protoc. 2007; 2(7): 1652-60). […] Luminescence was measured on a Tecan […]luor Plus Microplate Reader (Tecan US, Morrisville, N.C.). The antimicrobial activity was evaluated by the ability of the peptides to reduce the luminescence of P. aeruginosa-lux strain compared to untreated cells. […]

[2] = tested on: Escherichia coli ATCC 25922; assay: MIC, two-fold serial dilution in microtitre plates; assay type: cell-based; conditions: average of three independent experiments
Description: (§1) After 18 h incubation at 37° C.

[3] = tested on: Acinetobacter baumannii ATCC 19606; assay: MIC, two-fold serial dilution in microtitre plates; assay type: cell-based
Description: as §1

[4] = tested on: Listeria ivanovii Li4pVS2
Description: Staphylococcus aureus ATCC 25923, Enterococcus faecalis ATCC 29212, Escherichia coli ATCC 25922, Pseudomonas aeruginosa ATCC 27853, Acinetobacter baumannii ATCC 19606 and Klebsiella pneumoniae ATCC 13883 were cultured in Lysogeny Broth (LB). The bacteria Streptococcus pyogenes ATCC 19615 and Listeria ivanovii Li 4pVS2 were cultured in Brain Heart Infusion (BHI) broth, whereas Candida species (C. albicans ATCC 90028 and C. parapsilosis ATCC 22019) were cultured in Yeast Peptone Dextrose (YPD) medium. Logarithmic phase culture of bacteria and yeasts were centrifuged and suspended in MH (Mueller Hinton) broth to an A630 of 0.01 (˜10^6 CFU·mL^−1), except for S. pyogenes, L. ivanovii and E. faecalis that were suspended in their respective growth medium. […] After 18 h incubation at 37° C. (30° C. for yeasts), the antimicrobial susceptibility was monitored by measuring the change in A630 using a microplate reader (UVM 340, Asys Hitech). […] Each experiment was performed in triplicate with positive (0.7% formaldehyde) and negative (without peptide) inhibition controls.

HEK-293 cells = assay: Cytotoxicity, MTT-based microassay; assay type: cell-based, human; conditions: 72 h, read-out: Active Concentration (inhibitory concentration 50, IC50)
Description: HEK-293 cells were cultured in DMEM medium, and incubated at 37° C. in a humidified atmosphere of 5% CO2. Cell viability was quantified after peptide incubation using a methylthiazolyldiphenyl-tetrazolium bromide (MTT)-based microassay (Riss et al., (eds. Sittampalam, G. et al.) (Bethesda (Md.), 2004)). […] Then, 10 μl of MTT (5 mg·mL^−1 in PBS) was added to each well and the cells were further incubated for 4 h in the dark. The formazan crystals formed by mitochondrial reductases in intact cells are insoluble in aqueous solutions and precipitate. Formazan crystals were dissolved using a solubilization solution (40% dimethylformamide in 2% glacial acetic acid, 16% sodium dodecyl sulfate, pH 4.7) followed by 1 h incubation at 37° C. under shaking (150 rpm). Finally, the absorbance of the resuspended formazan was measured at 570 nm. Data were analyzed with GraphPad Prism® 5.0 software to determine the inhibitory concentration 50 (IC50), which corresponds to the peptide concentration producing 50% cell death. Results were expressed as the mean of three independent experiments performed in triplicate.

in vitro = conditions: human
Description: as §2

Row | Molecule | Hemolysis (human erythrocytes) | also measured
1 | N=C(N)NCCC[C@H](NC(=O)CNC(=O)[C@H](CO)NC(=O)CNC(=O)[C@H](Cc1ccc(O)cc1)NC(=O)CNC(=O)CNC(=O)CNC(=O)[C@H](Cc1ccc(O)cc1)NC(=O)[C@H](CCCNC(=N)N)NC(=O)CNC(=O)CNC(=O)CNC(=O)[C@H](Cc1ccc(O)cc1)NC(=O)CNC(=O)CNC(=O)[C@H](Cc1ccc(O)cc1)NC(=O)CNC(=O)[C@@H](N)Cc1ccc(O)cc1)C(=O)NCC(N)=O [Fragment 3] | >200 µg/mL | 
2 | RKLMELYEQAIRYGKRSYRR-NH2 [Guavanin 12] | >200 µg/mL | 
3 | RKLVECYERAERDANRSGRR-NH2 [Guavanin 15] | >200 µg/mL | 
4 | RKLMEMYEEAFRYFNRISRR-NH2 [Guavanin 5] | >200 µg/mL | 
5 | RQIYESIEQALRRGYRSYRR-NH2 [Guavanin 7] | >200 µg/mL | 
6 | RKYMRQYEEAIRDGNRSIRR-NH2 [Guavanin 3] | >200 µg/mL | 
7 | RRYMECYEQAERYFRRFGRR-NH2 [Guavanin 13] | >200 µg/mL | 
8 | RQLMELIEQAERYGNRFYRR-NH2 [Guavanin 11] | >200 µg/mL | 
9 | CC[C@H](C)[C@H](NC(=O)CN)C(=O)NCC(=O)N[C@@H](C)C(=O)N[C@H](C(=O)N[C@@H](CC(C)C)C(=O)N[C@@H](CCCCN)C(=O)N[C@H](C(=O)N[C@@H](CC(C)C)C(=O)N[C@H](C(=O)N[C@H](C(=O)NCC(=O)N[C@@H](CC(C)C)C(=O)N1CCC[C@H]1C(=O)N[C@@H](C)C(=O)N[C@@H](CC(C)C)C(=O)N[C@H](C(=O)N[C@@H](CO)C(=O)N[C@@H](Cc1c[nH]c2ccccc12)C(=O)N[C@H](C(=O)N[C@@H](CCCCN)C(=O)N[C@@H](CCCNC(=N)N)C(=O)N[C@@H](CCCCN)C(=O)N[C@@H](CCCNC(=N)N)C(=O)N[C@@H](CCC(N)=O)C(=O)N[C@@H](CCC(N)=O)C(N)=O)[C@@H](C)CC)[C@@H](C)CC)[C@@H](C)O)[C@@H](C)O)C(C)C)C(C)C [melittin] |  | SYTOX Green (SG) fluorescence signal (E. coli ATCC 25922): rapid and maximal SG fluorescence signal; DiSC3(5) fluorescence (membrane potential) (E. coli (ATCC 25922)): rapid increase in the fluorescence signal
10 | RYLMEYAEQAKRDAKRAYRR-NH2 [Guavanin 10] | >200 µg/mL | 
11 | RSFMKCYEQASRYGNRILRR-NH2 [Guavanin 14] | >200 µg/mL | 
12 | RQYMRYLEQAERYVNRNLRR-NH2 [Guavanin 4] | >200 µg/mL | 
13 | H-GIGKFLHSAKKFGKAFVGEIMNS-OH [Magainin 2, reference compound] | >200 µg/mL | MIC [1]: 100 µg/mL
14 | RSYYEAYERALRKGQRGIRR-NH2 [Guavanin 8] | >200 µg/mL | 
15 | RYGYGGYGGGRYGGGYGSGR-NH2 [Fragment 2] | 100 µg/mL | Hemolysis (human erythrocytes; listed as 2nd fragment): hemolytic
16 | RSIMELYKQASRSFNRGIRR-NH2 [Guavanin 6] | >200 µg/mL | 
17 | RQYMRQIEQALRYGYRISRR-NH2 [Guavanin 2] | >200 µg/mL | Active Concentration (MIC) [2]: 6.25 µM; Active Concentration (MIC) [3]: 6.25 µM; Active Concentration (MIC) [4]: 50 µM; IC50 (HEK-293 cells): > 200 µM; CC50 at 1 h (in vitro): > 200 µM
18 | RRGMKQYERISRDANRSYRR-NH2 [Guavanin 1] | >200 µg/mL | 
19 | RAYMEALRQAERLGNRTARR-NH2 [Guavanin 9] | >200 µg/mL | 
20 | SSRMECYEQAERYGYGGYGG-NH2 [Fragment 1] | >200 µg/mL | 
21 | GQPVGQGVERSHDDNRNQPR-NH2 [Fragment 4] | >200 µg/mL | 
